According to PubChem BioAssay AID386:

Target: GTP-binding protein Di-Ras1 (Homo sapiens) (UniProt O95057)
Test: DIRAS1 binders by thermal stabilization, biophysical, recombinant human GTPase, DSF (AID 386)
Conditions: SYPRO orange, at 10 µM, protein 2 µM, buffer 10 mM HEPES, pH 7.5, NaCl 150 mM, stronger effect = higher value

Sequence of GTP-binding protein Di-Ras1 (Homo sapiens) (O95057 whole entry, looked up): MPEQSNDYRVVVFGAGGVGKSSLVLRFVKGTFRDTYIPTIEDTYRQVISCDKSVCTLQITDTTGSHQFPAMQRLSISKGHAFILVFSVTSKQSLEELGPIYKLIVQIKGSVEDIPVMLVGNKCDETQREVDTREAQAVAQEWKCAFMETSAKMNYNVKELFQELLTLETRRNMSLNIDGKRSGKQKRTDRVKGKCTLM

Question: With `COc1ccc(S(O)(O)N(CCO)c2ccccc2CN(C)C/C=C/c2ccc(Cl)cc2)cc1` as the molecule, how does the Tm shift read?
Answer: The Tm shift was 4.4 Celsius.

Question: For `CN[C@@H]1C[C@H]2OC(C)([C@@H]1OC)n1c3ccccc3c3c4c(c5c6ccccc6n2c5c31)C(=O)NC4`, which Tm shift is on record?
Answer: Its Tm shift is 2.6 Celsius.

Question: For `NS(=O)(=O)c1ccc(Nc2nc(OCC3CCCCC3)c3[nH]cnc3n2)cc1`, which Tm shift is on record?
Answer: Its Tm shift is 2.1 Celsius.

Question: With `O=c1c(O)c(-c2ccc(O)c(O)c2)oc2cc(O)cc(O)c12` as the molecule, how does the Tm shift read?
Answer: Its Tm shift is 3.3 Celsius.
